What was measured:
[1] = tested on: Nitrososphaera viennensis; assay: Nitrification inhibition assay on Nitrososphaera viennensis (nitrite, Griess); assay type: cell-based, Nitrososphaera viennensis EN76T; conditions: Nitrososphaera viennensis; 2.5 µM compound; structural variants outside formula (I); read-out: Relative nitrification (%) by Nitrososphaera viennensis treated with 2.5 µM compound
Method: Nitrite (NO2—) was measured using the Griess reagent (Product number: G4410, Griess reagent (modified), Sigma-Aldrich). Equal volumes of the sample or a diluted sample and the Griess reagent were mixed a transparent flat bottom multi-well plate and incubated in the dark at room temperature for 10 minutes. Absorbance values at 540 nm were measured spectrophotometrically (EnVision, Perkin Elmer®) and used to calculate the [NO2—] by use of a standard curve.
A liquid culture sample of Nitrososphaera viennensis EN76T was kindly supplied by prof. dr. Christa Schleper (University of Vienna). Cells were grown in fresh water medium (FWM) as described earlier by Tourna et al. (2011). All necessary materials were rinsed with 1 % HCl and washed at least 3 times with MilliQ water. FWM (pH 7.5 (KOH)) contained 17 mM NaCl, 3 mM MgCl2 × 2 H2O, 680 µM CaCl2 × 2 H2O, 1.47 mM KH2PO4 and 6.71 mM KCI. After autoclaving, successively 1 mL non-chelated trace element mixture (101 mM HCl, 488 µM H3BO3, 508 µM MnCl2 × 4 H2O, 803 µM CoCl2 × 6 H2O, 101 µM NiCl2 × 6 H2O, 12 µM CuCl2 × 2 H2O, 503 µM ZnSO4 × 7 H2O and 150 µM Na2MoO4 × 2 H2O), 1 mL Fe-NaEDTA (7.5 mM), 1 mL vitamin solution (20 mg/L biotin, 20 mg/L folic acid, 100 mg/L pyridoxine-HCl, 50 mg/L thiamine-HCl, 50 mg/L riboflavin, 50 mg/L nicotinic acid, 50 mg/L DL-pantothenic acid, 50 mg/L P-aminobenzoic acid, 2 g/L choline chloride and 10 mg/L vitamin B12), 2 mL NaHCO3 (1 M), 2 mL kanamycin (100 mg/mL), 2 mL carbenicillin (100 mg/mL), 3 mL NH4Cl (1 M), 10 mL HEPES buffer (1 M, pH 7.6) and 1 mL Na-pyruvate (0.1 M) were added aseptically. All stock-solutions were filter-sterilized, except the autoclaved non-chelated trace element mixture. Cultures were incubated aerobically at 42° C. without shaking in sterile 250-mL Erlenmeyer flasks or 30-mL cultivation tubes (Product number: 216-1290, Quickstart universal containers STERILIN®, VWR) filled with either 100 or 20 mL FWM and sealed with tape (Micropore™ Surgical Tape 1530-1, 3M™). Late-log phase cultures ([NO2-] ≥ 1 mM) were subcultivated by dilution (1:400) in fresh FWM.
7-day old 100 mL cultures grown in 250-mL Erlenmeyer flasks with a [NO2-] ≥ 1 mM were 5 times overconcentrated in fresh FWM by centrifugation (4000 rpm, 15 min, 5° C.) in 50 mL centrifuge tubes (Cat. No. 430829, CentriStar™ Conical Centrifuge Tubes, Corning®). Per batch, all the cultures were pooled in one sterile Schott bottle. Subsequently, 200 µl/well was dispensed at low pipetting speed in transparent flat bottom 96-well plates (Cat. No. 353072, Falcon® 96 Well Clear Microplate, Corning®) using 150 µl wide-bore tips (two steps of 100 µl) on a Tecan robot (Freedom EVO®, Tecan). 0.5 µl of 99.99 % DMSO (negative control - final concentration 0.25%) and 0.5 µl of 0.04 M PTIO (2-phenyl-4,4,5,5-tetramethylimidazoline-1-oxyl 3-oxide, positive control - final concentration 100 µM) were added manually to the first and last column respectively. Finally, 0.5 µl of candidate nitrification inhibitors (1 mM stock solutions in 99.99% DMSO - final concentration 2.5 µM) were added to the central wells using a pin tool on a Tecan robot (Freedom EVO®, Tecan). In between additions, the pins were washed in sequence with 99.5% DMSO, MilliQ water and 100% ethanol and air-dried. All plates were sealed with tape (Micropore™ Surgical Tape 1530-1, 3M™), stacked per 4 on top of a 96-well plate filled with 100 µl MilliQ per well and covered with aluminum foil. Position effects of the stacks within the incubator were considered. Plates were incubated at 42° C. without shaking. 24 h later, NO2— was measured spectrophotometrically at 540 nm (EnVision, Perkin Elmer®). […]

[2] = tested on: ABIL (ammonia-binding liquid inoculum), nitrifying microbial enrichment containing both AOA and AOB; assay: Nitrification inhibition assay on ABIL (ammonium consumption); assay type: cell-based; conditions: 10 µM compound; structural variants outside formula (I); read-out: Relative nitrification (%) by ABIL treated with 10 µM compound

Row | SMILES | activity at 2.5 µM [1] | activity at 10 µM [2]
1 | CCCCc1nnc(NC(=O)c2n[nH]c3ccccc23)s1 [Example 97] | 100% | 86%
2 | O=C(NCCc1ccccc1)c1n[nH]c2ccccc12 [Example 98] | 100% | 89%
3 | Clc1ccc2c(Nc3ccc4[nH]ncc4c3)ncnc2c1 [Example 99] | 100% | 90%
4 | COC(=O)c1cc(CNC(=O)c2n[nH]c3ccccc23)ccc1OC [Example 100] | 96% | 90%
5 | COC(=O)c1n[nH]c2ccc(NS(=O)(=O)c3ccc(Cl)c(Cl)c3)cc12 [Example 101] | 94% | 90%
6 | O=S(=O)(CCC1CC1)Nc1n[nH]c2cccc(F)c12 [Example 102] | 100% | 90%
7 | CCC(CC)c1nnc(NC(=O)c2n[nH]c3ccccc23)s1 [Example 103] | 100% | 91%
8 | Cc1ccc2[nH]nc(C(=O)N3CCS(=O)(=O)C(C)(C)C3)c2c1 [Example 104] | 100% | 93%
9 | c1ccc(N2CCOCC2)c(CNc2ccc3[nH]ncc3c2)c1 [Example 105] | 100% | 94%
10 | O=S1(=O)CCCN1c1cccc(NCc2cccc3cn[nH]c23)c1 [Example 106] | 100% | 94%
11 | COc1ccc(S(=O)(=O)Nc2cccc3cn[nH]c23)c(NS(=O)(=O)C(F)F)c1 [Example 107] | 100% | 96%
12 | CC(O)CCN(C)S(=O)(=O)c1ccc2cn[nH]c2c1 (stereo not shown) [Example 108] | 100% | 97%
13 | Cc1ccc2[nH]nc(C(=O)N3CC[S+]([O-])C(C)(C)C3)c2c1 (stereo not shown) [Example 109] | 100% | 97%
14 | CC(CNC(=O)c1cccc2[nH]ncc12)CC1(C)OCCO1 (stereo not shown) [Example 110] | 100% | 97%
15 | O=C(NC1=NCCS1)c1n[nH]c2ccccc12 [Example 111] | 95% | 98%
16 | Fc1cccnc1N1CCC(NCc2cccc3cn[nH]c23)C1 (stereo not shown) [Example 112] | 100% | 98%
17 | O=S(=O)(Nc1cccc2[nH]ncc12)N1CCCCC1 [Example 113] | 100% | 98%
18 | O=C(O)CC1CSCCN1C(=O)c1cccc2cn[nH]c12 (stereo not shown) [Example 114] | 100% | 98%
19 | Cc1nccc(Nc2ccc3[nH]ncc3c2)n1 [Example 115] | 96% | 98%
20 | O=C1NCCN1c1cccc(NCc2cccc3cn[nH]c23)c1 [Example 116] | 96% | 99%
21 | CC1(C)CN(C(=O)c2n[nH]c3ccccc23)CCS1(=O)=O [Example 117] | 100% | 99%
22 | O=S(=O)(Nc1ccc2cn[nH]c2c1)c1ccc(S(=O)(=O)N2CCCC2)cc1 [Example 118] | 100% | 99%
23 | O=C(CC1CCCCCC1)c1n[nH]c2ccccc12 [Example 119] | 100% | 99%
24 | C#CCOCCC(=O)Nc1n[nH]c2c(Cl)cccc12 [Example 120] | 98% | 100%
25 | COc1ccc(OCCC(=O)Nc2n[nH]c3ccccc23)cc1 [Example 121] | 100% | 100%
26 | CCNC(=O)c1cccc(NC(=O)c2n[nH]c3ccccc23)c1 [Example 122] | 95% | 100%
27 | O=C(c1n[nH]c2ccccc12)N1CCSCC1 [Example 123] | 92% | 100%
28 | O=C1NC(=S)S/C1=C\c1cccc2cn[nH]c12 [Example 124] | 99% | 100%
29 | COC(C)(C)c1noc(Cc2n[nH]c3ccccc23)n1 [Example 125] | 97% | 100%

Reference: patent US20230357099A1, “PYRAZOLO [3,4-B] PYRIDINE-4-CARBOXAMIDE NITRIFICATION INHIBITOR” (EUROCHEM ANTWERPTEN, priority 2020, published 2023)
